Laboratory results taken from PMC10819888, “Benzimidazole-Based Derivatives as Apoptotic Antiproliferative Agents: Design, Synthesis, Docking, and Mechanistic Studies” (Molecules, 2024).

Assays:
Experiment in all cases: NCI-60 one-dose assay
Assay type in all cases: cell-based
DU-145 = details: Homo sapiens, DU-145 (Prostate Cancer), read-out: Cell Inhibition Percent
RPMI-8226 = details: Homo sapiens, RPMI-8226 (Leukemia), read-out: Cell Inhibition Percent
HS 578T = details: Homo sapiens, HS 578T (Breast Cancer), read-out: Cell Inhibition Percent
HCT-116 = details: Homo sapiens, HCT-116 (Colon Cancer), read-out: Cell Inhibition Percent
SN12C = details: Homo sapiens, SN12C (Renal Cancer), read-out: Cell Inhibition Percent
HL-60(TB) = details: Homo sapiens, HL-60(TB) (Leukemia), read-out: Cell Inhibition Percent
NCI-H322M = details: Homo sapiens, NCI-H322M (Non-Small Cell Lung Cancer), read-out: Cell Inhibition Percent
SK-OV-3 = details: Homo sapiens, SK-OV-3 (ovarian cancer), read-out: Cell Inhibition Percent
UO-31 = details: Homo sapiens, UO-31 (Renal Cancer), read-out: Cell Inhibition Percent
SR = details: Homo sapiens, SR (Leukemia), read-out: Cell Inhibition Percent
T-47D = details: Homo sapiens, T47D, T-47D (Breast Cancer), read-out: Cell Inhibition Percent
ACHN = details: Homo sapiens, ACHN (Renal Cancer), read-out: Cell Inhibition Percent
LOX IMVI = details: Homo sapiens, LOX IMVI (Melanoma), read-out: Cell Inhibition Percent
CAKI-1 = details: Homo sapiens, CAKI-1 (Renal Cancer), read-out: Cell Inhibition Percent
HOP-62 = details: Homo sapiens, HOP-62 (Non-Small Cell Lung Cancer), read-out: Cell Inhibition Percent
OVCAR-5 = details: Homo sapiens, OVCAR-5 (ovarian cancer), read-out: Cell Inhibition Percent
MDA-MB-435 = details: Homo sapiens, MDA-MB-435 (Melanoma), read-out: Cell Inhibition Percent
M14 = details: Homo sapiens, M14 (Melanoma), read-out: Cell Inhibition Percent
HCC-2998 = details: Homo sapiens, HCC-2998 (Colon Cancer), read-out: Cell Inhibition Percent
OVCAR-4 = details: Homo sapiens, OVCAR-4 (ovarian cancer), read-out: Cell Inhibition Percent
HCT-15 = details: Homo sapiens, HCT-15 (Colon Cancer), read-out: Cell Inhibition Percent
MDA-MB-468 = details: Homo sapiens, MDA-MB-468 (Breast Cancer), read-out: Cell Inhibition Percent
K-562 = details: Homo sapiens, K562, K-562 (Leukemia), read-out: Cell Inhibition Percent
BT-549 = details: Homo sapiens, BT-549 (Breast Cancer), read-out: Cell Inhibition Percent
786-0 = details: Homo sapiens, 786-0 (Renal Cancer), read-out: Cell Inhibition Percent
UACC-62 = details: Homo sapiens, UACC-62 (Melanoma), read-out: Cell Inhibition Percent
A498 = details: Homo sapiens, A498 (Renal Cancer), read-out: Cell Inhibition Percent
HOP-92 = details: Homo sapiens, HOP-92 (Non-Small Cell Lung Cancer), read-out: Cell Inhibition Percent
NCI-H522 = details: Homo sapiens, NCI-H522 (Non-Small Cell Lung Cancer), read-out: Cell Inhibition Percent
KM12 = details: Homo sapiens, KM12 (Colon Cancer), read-out: Cell Inhibition Percent
NCI-H460 = details: Homo sapiens, NCI-H460 (Non-Small Cell Lung Cancer), read-out: Cell Inhibition Percent

For `COc1cc(/C=N/NC(=O)c2ccc3[nH]c(-c4ccc(Cl)cc4)nc3c2)cc(OC)c1OC` [Compound 4h, N′-(3,4,5-Trimethoxybenzylidene)-2-(4-chlorophenyl)-1H-benzimidazole-5 carbohydrazide], the inhibition at 10 µM (DU-145) was 2.57%, the inhibition at 10 µM (RPMI-8226) was 80.1% and the inhibition at 10 µM (HS 578T) was 51.7%. It also gave an inhibition at 10 µM (HCT-116) of 63.8%, an inhibition at 10 µM (SN12C) of 31.5% and an inhibition at 10 µM (HL-60(TB)) of 55.1%. It also gave an inhibition at 10 µM (NCI-H322M) of 12.4%, an inhibition at 10 µM (SK-OV-3) of 12.2% and an inhibition at 10 µM (UO-31) of 11.7%. The inhibition at 10 µM (SR) was 54.3%, the inhibition at 10 µM (T-47D) was 84.1% and the inhibition at 10 µM (ACHN) was 32.3%. The inhibition at 10 µM (LOX IMVI) was 49.4%, the inhibition at 10 µM (CAKI-1) was 24% and the inhibition at 10 µM (HOP-62) was 18.3%. For the same molecule, the inhibition at 10 µM (OVCAR-5) was 0%, the inhibition at 10 µM (MDA-MB-435) was 36% and the inhibition at 10 µM (M14) was 58%. The inhibition at 10 µM (HCC-2998) was 20%, the inhibition at 10 µM (OVCAR-4) was 0% and the inhibition at 10 µM (HCT-15) was 3.98%. The inhibition at 10 µM (MDA-MB-468) was 0%, the inhibition at 10 µM (K-562) was 67.3% and the inhibition at 10 µM (BT-549) was 29.3%. The inhibition at 10 µM (786-0) was 48.8%, the inhibition at 10 µM (UACC-62) was 71.3% and the inhibition at 10 µM (A498) was 102%. The inhibition at 10 µM (HOP-92) was 28.3%, the inhibition at 10 µM (NCI-H522) was 21.7% and the inhibition at 10 µM (KM12) was 38.2%. It also gave an inhibition at 10 µM (NCI-H460) of 17.2%.

In the case of `O=C(NN=Cc1ccc(Cl)cc1Cl)c1ccc2[nH]c(-c3ccc(Cl)cc3)nc2c1` [Compound 4f, N′-(2,4-Dichlorobenzylidene)-2-(4-chlorophenyl)-1H-benzimidazole-5-carbohydrazide], the inhibition at 10 µM (DU-145) is reported as 0%, the inhibition at 10 µM (RPMI-8226) is reported as 15.4% and the inhibition at 10 µM (HS 578T) is reported as 10.4%. The inhibition at 10 µM (HCT-116) was 8.63%, the inhibition at 10 µM (SN12C) was 1.23% and the inhibition at 10 µM (HL-60(TB)) was 5.98%. For the same molecule, the inhibition at 10 µM (NCI-H322M) was 0%, the inhibition at 10 µM (SK-OV-3) was 7.23% and the inhibition at 10 µM (UO-31) was 27.8%. For the same molecule, the inhibition at 10 µM (SR) was 54.6%, the inhibition at 10 µM (T-47D) was 12.3% and the inhibition at 10 µM (ACHN) was 9.01%. For the same molecule, the inhibition at 10 µM (LOX IMVI) was 18.9%, the inhibition at 10 µM (CAKI-1) was 9.61% and the inhibition at 10 µM (HOP-62) was 5.89%. The inhibition at 10 µM (OVCAR-5) was 0%, the inhibition at 10 µM (MDA-MB-435) was 0% and the inhibition at 10 µM (M14) was 17.1%. The inhibition at 10 µM (HCC-2998) was 3.25%, the inhibition at 10 µM (OVCAR-4) was 0% and the inhibition at 10 µM (HCT-15) was 0%. The inhibition at 10 µM (MDA-MB-468) was 0%, the inhibition at 10 µM (K-562) was 53.7% and the inhibition at 10 µM (BT-549) was 0%. It also gave an inhibition at 10 µM (786-0) of 0%, an inhibition at 10 µM (UACC-62) of 0% and an inhibition at 10 µM (A498) of 36.7%. For the same molecule, the inhibition at 10 µM (HOP-92) was 0%, the inhibition at 10 µM (NCI-H522) was 7.79% and the inhibition at 10 µM (KM12) was 1.75%. For the same molecule, the inhibition at 10 µM (NCI-H460) was 1.37%.

In the case of `CCNC(=S)NNC(=O)c1ccc2[nH]c(-c3ccc(Cl)cc3)nc2c1` [Compound 5], the inhibition at 10 µM (DU-145) is reported as 0%, the inhibition at 10 µM (RPMI-8226) is reported as 95.8% and the inhibition at 10 µM (HS 578T) is reported as 9.75%. It also gave an inhibition at 10 µM (HCT-116) of 0%, an inhibition at 10 µM (SN12C) of 10.1% and an inhibition at 10 µM (HL-60(TB)) of 0%. For the same molecule, the inhibition at 10 µM (NCI-H322M) was 3.36%, the inhibition at 10 µM (SK-OV-3) was 0.37% and the inhibition at 10 µM (UO-31) was 6.39%. For the same molecule, the inhibition at 10 µM (SR) was 88.9%, the inhibition at 10 µM (T-47D) was 18.4% and the inhibition at 10 µM (ACHN) was 6.31%. It also gave an inhibition at 10 µM (LOX IMVI) of 12.4%, an inhibition at 10 µM (CAKI-1) of 17.1% and an inhibition at 10 µM (HOP-62) of 0.87%. For the same molecule, the inhibition at 10 µM (OVCAR-5) was 3.26%, the inhibition at 10 µM (MDA-MB-435) was 0.91% and the inhibition at 10 µM (M14) was 1.67%. The inhibition at 10 µM (HCC-2998) was 5.54%, the inhibition at 10 µM (OVCAR-4) was 5.13% and the inhibition at 10 µM (HCT-15) was 5.9%. It also gave an inhibition at 10 µM (MDA-MB-468) of 0%, an inhibition at 10 µM (K-562) of 88.4% and an inhibition at 10 µM (BT-549) of 0%. For the same molecule, the inhibition at 10 µM (786-0) was 0%, the inhibition at 10 µM (UACC-62) was 1.88% and the inhibition at 10 µM (A498) was 57.7%. The inhibition at 10 µM (HOP-92) was 1.09%, the inhibition at 10 µM (NCI-H522) was 5.4% and the inhibition at 10 µM (KM12) was 7.97%. It also gave an inhibition at 10 µM (NCI-H460) of 1.06%.
